Test results taken from PubChem BioAssay (NCI).
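48-hour exposure; five concentrations; linearly interpolated endpoints. GI50 = concentration required for 50% inhibition of growth. TGI denotes the concentration required for complete inhibition of growth.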

Columns and labels:
Assay in all cases: NCI tumour cell line growth inhibition, 48 h
[1] = system: A549 NSCLC
[2] = system: HOP-62 NSCLC
[3] = system: HOP-92 NSCLC
[4] = system: M14 melanoma
[5] = system: SK-MEL-28 melanoma
[6] = system: SN12C renal
[7] = system: SW-620 colon
[8] = system: A498 renal
[9] = system: DU-145 prostate
[10] = system: MCF7 breast

SMILES	TGI [1]	TGI [2]	TGI [3]	TGI [4]	TGI [5]	TGI [6]	TGI [7]	TGI [8]	GI50 [8]	GI50 [1]	GI50 [9]	TGI [9]	GI50 [2]	GI50 [4]	GI50 [10]	TGI [10]	GI50 [5]	GI50 [6]	GI50 [7]	GI50 [3]
CC(=O)OC(CCC1(C)OC1COc1ccc(CCNC(=O)c2ccccc2)cc1)C(C)(C)OC(C)=O (stereo unspecified)	> 100 µM	> 100 µM	> 100 µM	30.1 µM	91.8 µM	> 100 µM	> 100 µM	–	–	–	–	–	–	–	–	–	–	–	–	–
C=C(Br)N(CC)CC	> 100 µM	> 100 µM	> 100 µM	> 100 µM	> 100 µM	> 100 µM	> 100 µM	> 100 µM	–	–	–	–	–	–	–	–	–	–	–	–
O=C(/C=C/c1cc([N+](=O)[O-])ccc1Cl)c1ccccc1	92.9 µM	63.5 µM	–	22.5 µM	29 µM	54 µM	3.9 µM	26.9 µM	12.8 µM	22 µM	14.7 µM	31.2 µM	25 µM	10.2 µM	2.76 µM	17.4 µM	14.3 µM	19.6 µM	2.05 µM	–
O=C(Nc1nc2ncn(CCNCc3ccccc3)c2c(=O)[nH]1)c1ccccc1	> 100 µM	> 100 µM	> 100 µM	> 100 µM	> 100 µM	> 100 µM	> 100 µM	> 100 µM	–	–	–	–	–	–	–	–	–	–	–	–
CC(=O)OCC1OC(SC2OC(COC(C)=O)C(OC(C)=O)C(OC(C)=O)C2OC(C)=O)C(OC(C)=O)C(OC(C)=O)C1OC(C)=O (stereo unspecified)	> 100 µM	> 100 µM	–	–	> 100 µM	> 100 µM	> 100 µM	> 100 µM	–	–	–	> 100 µM	–	–	–	> 100 µM	–	–	–	–
O=C(CC1(O)C(=O)Nc2c(Cl)cc(Cl)cc21)c1cccc2ccccc12 (stereo unspecified)	29.8 µM	30.6 µM	–	30.5 µM	34.1 µM	34 µM	31.8 µM	37.3 µM	–	–	–	–	–	–	–	–	–	–	–	–
COc1cc(O)c(C(=O)/C=C/c2ccc(O)cc2)c(O)c1[C@@H]1C[C@H](CCc2ccc(O)cc2)O[C@H](c2ccc(O)cc2)C1	–	11.2 µM	5.92 µM	12.2 µM	14.1 µM	20.3 µM	4.91 µM	28.1 µM	14 µM	–	3.22 µM	10.9 µM	3.17 µM	3.48 µM	3.08 µM	8.85 µM	3.83 µM	4.36 µM	2.23 µM	2 µM
CC(C)CCN=C(N)c1ccc(N2CCN(c3ccc(C(N)=NCCC(C)C)cc3)CC2)cc1	> 100 µM	26.9 µM	24.3 µM	29.6 µM	24.3 µM	42.7 µM	91.2 µM	–	–	7.61 µM	6.95 µM	71.2 µM	10.4 µM	11.7 µM	16.2 µM	33.8 µM	5.89 µM	7.52 µM	15.1 µM	3.86 µM
COC1OC(COCc2ccc(Cl)cc2)C(OCc2ccc(Cl)cc2)C1N=[N+]=[N-] (stereo unspecified)	16 µM	–	> 100 µM	> 100 µM	> 100 µM	> 100 µM	> 100 µM	–	–	–	–	–	–	–	–	–	–	–	–	–
CC1OC(OC2C(O[C@H]3CC[C@@]4(C)C(=CC[C@H]5[C@@H]6C[C@@H]7O[C@]8(CC[C@H](C)CN8)[C@@H](C)[C@@H]7[C@@]6(C)CC[C@@H]54)C3)OC(CO)C(O)C2OC2OC(CO)C(O)C(O)C2O)C(O)C(O)C1O (stereo partly specified)	34.5 µM	–	35.5 µM	37.8 µM	38.5 µM	38.6 µM	39 µM	42.9 µM	–	–	–	33.6 µM	–	–	–	32.9 µM	–	–	–	–
Cn1ccnc1C(=O)/C=C/c1ccccc1	11.5 µM	14.4 µM	–	10.4 µM	5.97 µM	17.3 µM	12.4 µM	17 µM	5.05 µM	2.98 µM	2.8 µM	12.7 µM	4.44 µM	3.41 µM	1.27 µM	6.77 µM	2.61 µM	3 µM	3.58 µM	–
O=[N+]([O-])c1cccc(-c2oc(C=Nc3ccccc3)c([N+](=O)[O-])c2-c2cccc([N+](=O)[O-])c2)c1	> 100 µM	> 100 µM	> 100 µM	> 100 µM	> 100 µM	–	> 100 µM	> 100 µM	–	–	–	–	–	–	–	–	–	–	–	–
O=C1C2C3C=CC(C2C(=O)N1COP(=O)(O)O)C1C2C(=O)N(COP(=O)(O)O)C(=O)C2C31 (stereo unspecified)	> 100 µM	> 100 µM	> 100 µM	> 100 µM	> 100 µM	> 100 µM	> 65.2 µM	> 100 µM	–	–	–	–	–	–	–	–	–	–	–	–
O=[N+]([O-])c1cccc(C2ON2C2CCCCC2)c1 (stereo unspecified)	84.5 µM	81.3 µM	89.7 µM	32.4 µM	> 100 µM	36 µM	24.7 µM	90.1 µM	–	–	–	–	–	–	–	–	–	–	–	–
COC(=O)CCC(=O)CC(=O)C(=O)Nc1c(Cl)cc([N+](=O)[O-])cc1Cl	> 100 µM	> 100 µM	> 100 µM	> 100 µM	> 100 µM	> 100 µM	–	> 100 µM	–	–	–	–	–	–	–	–	–	–	–	–
O=[N+]([O-])c1c(Br)sc(Br)c1[N+](=O)[O-]	41.5 µM	11.3 µM	3.57 µM	–	4.54 µM	10.9 µM	3.27 µM	26 µM	13.2 µM	13.7 µM	6.8 µM	19.6 µM	3.25 µM	–	2.2 µM	7.65 µM	2.01 µM	3.12 µM	1.6 µM	1.87 µM
CCOC(=O)C1=C(C)N(c2ccc(C)cc2)C2=C(C(=O)N(c3ccccc3)C2c2ccccc2)C1c1ccccc1 (stereo unspecified)	> 25 µM	> 25 µM	–	> 25 µM	> 25 µM	> 25 µM	> 25 µM	> 25 µM	–	–	–	–	–	–	–	–	–	–	–	–
COCCCNC(=O)CC(=O)NCCCOC	> 100 µM	> 100 µM	> 100 µM	> 100 µM	> 100 µM	> 100 µM	> 100 µM	> 100 µM	–	–	–	–	–	–	–	–	–	–	–	–
CN(C)c1ccc(Nc2cc(-c3cccc(OC(F)(F)F)c3)nc3ccc(N4CCCC4)cc23)cc1	3.22 µM	3.22 µM	3.71 µM	3.32 µM	3.3 µM	3.5 µM	–	10.6 µM	2.47 µM	1.7 µM	2.82 µM	7.91 µM	1.67 µM	1.7 µM	1.86 µM	4.61 µM	1.79 µM	1.78 µM	–	1.71 µM
